Test results taken from patent publication US11046954B2, “Targeted protein degradation to attenuate adoptive T-cell therapy associated adverse inflammatory responses” (Dana-Farber Cancer Institute, Inc., priority 2015, dated 2021).

Columns and labels:
[1] = system: downstream surrogates of KRAS signaling (e.g. pMEK and pAKT); assay: Immunoblot of NIH3T3 cells expressing FKBP*-KRASG12V: downstream KRAS signaling; type: cell-based
Protocol: FIG. 19 is an immunoblot of NIH3T3 cells expressing KRASG12V allele fused to FKBP* in the N-terminus or C-terminus. Cells were treated with 500 nM dFKBP7 for the indicated time. Cells were harvested and immunoblotted to measure degradation of FKBP*-KRASG12V and downstream surrogates of KRAS signaling (e.g. pMEK and pAKT).
(§1) FIG. 20 is an immunoblot of NIH3T3 cells expressing FKBP* fused to the N-terminus of KRASG12V treated with luM of the indicated dFKBP heterobifunctional compounds for 24 hours. Cells were harvested and immunoblotted to measure degradation of FKBP*-KRASG12V and downstream surrogates of KRAS signaling (e.g. pMEK and pAKT).
as §1, with “21” for “20”, “with” for “with luM of”, “concentrations of dFKBP13” for “dFKBP heterobifunctional compounds”
FIG. 22 is an immunoblot of NIH3T3 cells expressing FKBP* fused to the N-terminus of KRASG12V treated with luM dFKBP13 for the indicated time. Cells were harvested and immunoblotted to measure degradation of FKBP*-KRASG12V and downstream surrogates of KRAS signaling (e.g. pMEK and pAKT).
Cells were treated with 500 nM dFKBP7 for the indicated time. Cells were harvested and immunoblotted to measure degradation of FKBP*-KRAS and downstream surrogates of KRAS signaling (e.g. pMEK and pAKT).
Western blotting of NIH3T3 cells expressing dTAG-KRASG12V were treated with 1 μM of the indicated dFKBP heterobifunctional compounds for 24 hours. Cells were harvested and immunoblotted to measure degradation of FKBP*-KRAS and downstream surrogates of KRAS signaling (e.g. pMEK and pAKT).
Western blotting of NIH3T3 cells expressing FKBP* fused to the N-terminus of KRAS treated with the indicated concentrations of dFKBP13 for 24 hours. Cells were harvested and immunoblotted to measure degradation of FKBP*-KRAS and downstream surrogates of KRAS signaling (e.g. pMEK and pAKT).
To evaluate the kinetic control of targeted degradation of dTAG-KRAS, dFKBP13 was administered by increased duration. Western blotting of NIH3T3 cells expressing FKBP* fused to the N-terminus of KRAS treated with 1 μM dFKBP13 for the indicated time. Cells were harvested and immunoblotted to measure degradation of FKBP*-KRAS and downstream surrogates of KRAS signaling (e.g. pMEK and pAKT).

[2] = biological target: T1, CD19-CAR-dTAG (Homo sapiens, UniProt P62942+Q96SW2, F37V/H95N/M50V/V99I); assay: Immunoblot of Jurkat T-cells expressing CD19-CAR-dTAG; type: cell-based; details: for degradation of CD19-CAR-dTAG, time dependence: 250 nM, indicated time; for degradation of CD19-CAR-dTAG, dose dependence: indicated dose, 4 hours
T1 construct: HA; expressed in transfected cells; host or cells: Jurkat T-cells (lentiviral transduction, blasticidin selection)
Protocol: Jurkat T-cells were transduced with lentivirus expressing CD19-CAR-dTAG. Cells were selected with blasticidin and expanded. Stable expression of CD19-CAR-dTAG was confirmed.
Jurkat T-cells expressing CD19-CAR-dTAG were treated with the indicated dose of dFKBP7 or dFKBP13 for 4 hours.
FIG. 15A and FIG. 15B are immunoblots of cells treated with bi-functional molecules described in the present invention. Jurkat T-cells expressing CD19-CAR-dTAG were treated with 250 nM of dFKBP7 or dFKBP13 for the indicated time.
Jurkat T-cells expressing CD19-CAR-dTAG were treated with 250 nM of dFKBP7 for 4 hours. The dFKBP7 was then removed from the Jurkat cells via washouts and the re-expression of CD19-CAR-dTAG was monitored by immunoblot analysis at the indicated time points.
(§2) FIG. 17A illustrates the experimental design to measure the ability to control the expression CD19-CAR-dTAG in T-cells upon addition and removal of dFKBP7. Jurkat cells expressing CD19-CAR-dTAG were treated with 250 nM of dFKBP7 at the indicated time points (0 and 8 hours). At 4 and 12 hours, the dFKBP7 was washed out of the Jurkat cells. At each indicated timepoint, Jurkat cells were harvest to monitor CD19-CAR-dTAG expression levels via immunoblot analysis. FIG. 17B is the resulting immunoblot from the experimental design in FIG. 17A.
Jurkat T-cells were transduced with lentivirus expressing CD19-CAR-dTAG. Cells were selected with blasticidin and expanded. Stable expression of CD19-CAR-dTAG in Jurkat cells was confirmed by anti-HA western immunoblotting of whole cell lysates.
In an effort to define the optimal concentration of bifunctional molecules to induce degradation of CD19-CAR-dTAG, degradation was measured upon treatment with increasing concentrations of dFKBP7 and dFKBP13. Jurkat T-cells were engineered to express CD19-CAR-dTAG. Cells were treated with the indicated dose of dFKBP7 or dFKBP13 for 4 hours before lysates were prepared for western immunoblot analysis.
To evaluate the kinetic control of targeted degradation of CD19-CAR-dTAG, a fixed concentration of bi-functional molecules dFKBP7 and dFKBP13 were administered at a fixed concentration for increased duration. Jurkat T-cells were engineered to express CD19-CAR-dTAG. Cells were treated with 250 nM dFKBP7 or dFKBP13 for the indicated time before lysates were prepared for immunoblot analysis.
Immunoblot illustrating the kinetics of re-expression of the CD19-CAR-dTAG protein following targeting degradation with dFKBP7. Jurkat T-cells engineered to express CD19-CAR-dTAG were treated with 250 nM of dFKBP7 for 4 hours. The dFKBP7 was then removed from the Jurkat cells via washouts and the re-expression of CD19-CAR-dTAG was monitored by immunoblot analysis at the indicated time points.
as §2, with “engineered to express” for “expressing”, “analysis.” for “analysis. FIG. 17B is the resulting immunoblot from the experimental design in FIG. 17A.”
FIG. 17B is an immunoblot illustrating the ability to toggle on and off expression of CD19-CAR-dTAG as described in FIG. 17A.

T1 sequence (P62942 with tags, fused parts or gaps F37V/M50V/H95N/V99I limits assumed): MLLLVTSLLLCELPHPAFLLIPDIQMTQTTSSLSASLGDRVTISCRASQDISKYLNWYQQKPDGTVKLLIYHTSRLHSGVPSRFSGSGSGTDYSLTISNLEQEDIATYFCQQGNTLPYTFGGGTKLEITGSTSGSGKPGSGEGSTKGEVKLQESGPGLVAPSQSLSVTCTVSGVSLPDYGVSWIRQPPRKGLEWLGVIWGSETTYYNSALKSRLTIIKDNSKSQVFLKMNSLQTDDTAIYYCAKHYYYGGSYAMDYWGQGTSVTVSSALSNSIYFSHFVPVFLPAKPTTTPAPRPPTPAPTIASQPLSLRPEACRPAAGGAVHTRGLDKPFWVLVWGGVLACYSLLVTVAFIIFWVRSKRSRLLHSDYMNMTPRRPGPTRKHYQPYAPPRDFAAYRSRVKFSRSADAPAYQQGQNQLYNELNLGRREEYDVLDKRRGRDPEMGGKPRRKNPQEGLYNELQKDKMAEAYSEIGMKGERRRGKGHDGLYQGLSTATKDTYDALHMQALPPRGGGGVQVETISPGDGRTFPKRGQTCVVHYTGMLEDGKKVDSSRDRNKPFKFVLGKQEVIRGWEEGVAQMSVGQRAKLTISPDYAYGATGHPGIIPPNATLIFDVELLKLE
T1 sequence (Q96SW2 whole entry): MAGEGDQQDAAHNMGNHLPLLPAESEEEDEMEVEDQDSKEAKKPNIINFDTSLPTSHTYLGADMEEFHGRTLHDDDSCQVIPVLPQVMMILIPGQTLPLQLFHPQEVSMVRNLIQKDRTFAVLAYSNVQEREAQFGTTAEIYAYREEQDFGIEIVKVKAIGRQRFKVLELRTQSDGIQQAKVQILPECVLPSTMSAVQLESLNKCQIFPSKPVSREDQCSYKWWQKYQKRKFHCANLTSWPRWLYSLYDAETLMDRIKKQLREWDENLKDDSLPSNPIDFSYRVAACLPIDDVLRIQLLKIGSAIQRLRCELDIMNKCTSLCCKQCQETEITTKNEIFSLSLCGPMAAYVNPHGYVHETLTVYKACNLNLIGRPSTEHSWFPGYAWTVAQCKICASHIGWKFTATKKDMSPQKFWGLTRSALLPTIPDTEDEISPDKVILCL
T1 sequence (Q16531 whole entry partner): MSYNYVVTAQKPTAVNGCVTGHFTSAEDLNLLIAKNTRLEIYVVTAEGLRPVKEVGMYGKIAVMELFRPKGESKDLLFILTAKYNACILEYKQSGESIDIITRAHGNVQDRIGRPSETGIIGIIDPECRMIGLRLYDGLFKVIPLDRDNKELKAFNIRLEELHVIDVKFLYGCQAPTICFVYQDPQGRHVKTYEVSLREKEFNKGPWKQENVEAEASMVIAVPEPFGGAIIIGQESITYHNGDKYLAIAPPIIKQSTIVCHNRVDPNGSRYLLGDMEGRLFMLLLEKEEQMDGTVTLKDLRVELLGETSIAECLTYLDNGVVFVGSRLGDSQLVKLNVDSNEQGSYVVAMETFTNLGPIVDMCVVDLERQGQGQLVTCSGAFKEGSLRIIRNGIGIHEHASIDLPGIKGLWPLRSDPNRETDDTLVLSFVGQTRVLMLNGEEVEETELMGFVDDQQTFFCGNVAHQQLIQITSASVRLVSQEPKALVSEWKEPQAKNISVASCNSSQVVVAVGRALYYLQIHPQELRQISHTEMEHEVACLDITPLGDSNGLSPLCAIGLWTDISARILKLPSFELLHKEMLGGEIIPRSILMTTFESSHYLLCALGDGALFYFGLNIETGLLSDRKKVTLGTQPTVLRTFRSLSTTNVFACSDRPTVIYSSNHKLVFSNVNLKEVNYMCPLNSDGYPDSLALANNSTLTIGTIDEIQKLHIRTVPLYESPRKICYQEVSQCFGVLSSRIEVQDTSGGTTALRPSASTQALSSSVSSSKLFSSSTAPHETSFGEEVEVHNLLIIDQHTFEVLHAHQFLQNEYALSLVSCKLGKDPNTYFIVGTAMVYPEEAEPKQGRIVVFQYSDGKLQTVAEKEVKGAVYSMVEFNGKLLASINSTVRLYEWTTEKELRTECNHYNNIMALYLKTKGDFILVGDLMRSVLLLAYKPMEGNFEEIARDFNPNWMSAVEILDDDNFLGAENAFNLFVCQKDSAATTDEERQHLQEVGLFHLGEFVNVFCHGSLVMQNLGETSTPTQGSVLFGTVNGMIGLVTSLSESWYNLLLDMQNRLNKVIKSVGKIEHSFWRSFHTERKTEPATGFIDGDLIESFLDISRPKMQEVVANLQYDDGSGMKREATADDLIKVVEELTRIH

SMILES	downstream p-AKT signal ([1]; NIH3T3 N-terminal dTAG-KRAS, 500 nM dFKBP7, indicated time)	re-expression of CD19-CAR-dTAG after washout ([2]; Jurkat T-cells, 250 nM dFKBP7 4 hours, then removed via washouts)	degradation of CD19-CAR-dTAG, time dependence ([2]; Jurkat T-cells)	degradation of CD19-CAR-dTAG, dose dependence ([2]; Jurkat T-cells)	rheostat chemical control of CD19-CAR-dTAG expression ([2]; Jurkat cells, 250 nM dFKBP7 at 0 and 8 hours, washed out at 4 and 12 hours)	inhibition of downstream signaling (pMEK, pAKT) ([1]; NIH3T3 FKBP*-KRASG12V, 1 μM, 24 hours)	IC50 ([1]; NIH3T3 FKBP*-KRASG12V, indicated concentrations of dFKBP13, 24 hours, read-out: IC50, inhibits downstream signaling)
CC[C@H](C(=O)N1CCCC[C@H]1C(=O)O[C@H](CCc1ccc(OC)c(OC)c1)c1cccc(OCC(=O)NCCCOCCOCCOCCCNC(=O)COc2cccc3c2C(=O)N(C2CCC(=O)NC2=O)C3=O)c1)c1cc(OC)c(OC)c(OC)c1 (stereo partly drawn) [dFKBP7]	downstream decrease in p-AKT signal	protein levels recovered following removal	time-dependent degradation	dose-dependent degradation	allows for exquisite chemical control of CD19-CAR-dTAG protein levels allowing for modulation within hours		
CC[C@H](C(=O)N1CCCC[C@H]1C(=O)O[C@H](CCc1ccc(OC)c(OC)c1)c1cccc(OCC(=O)NCCCCCCOc2cccc3c2C(=O)N(C2CCC(=O)NC2=O)C3=O)c1)c1cc(OC)c(OC)c(OC)c1 (stereo partly drawn) [dFKBP13]			time-dependent degradation	dose-dependent degradation		inhibition of downstream signaling	> 100 nM
